The values below come from US20250051324A1, “PARP INHIBITOR, PHARMACEUTICAL COMPOSITION COMPRISING SAME, AND USE THEREOF” (KEYTHERA (SUZHOU) BIO-PHARMACEUTICALS CO., LIMITED, priority 2021, published 2025).

Data set [1] concerns MDA-MB-436 breast cancer cells. Description: Cell proliferation assay, MDA-MB-436. It counts as cell-based. The following applies: Homo sapiens, MDA-MB-436, 168 h, read-out: MDA-MB-436 Cell IC50. The method in brief: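 Cells seeded 16 h, then exposed to a 9-point 1:3 compound dilution series for 7 days at 37° C., 5% CO2; DMSO-matched and cell-free controls. Viability by CellCounting-Lite luminescence; IC50 from log concentration versus % inhibition.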

The nature of data set [2]: Evaluation of pharmacokinetics in mice. The following applies: male, ICR (CD1), mouse, plasma, po, 10 mg/kg.
Protocol: Test Objective: The pharmacokinetics of the example compounds of the present application were tested in mice. By measuring the drug concentration in mouse plasma, the pharmacokinetic behavior of the compounds of the present invention was studied to evaluate their pharmacokinetic characteristics.
Test Animals: 6-8 Week Old Male ICR (CD1) Mice
Oral Gavage Drug Preparation: An appropriate amount of the test compound was first weighed and dissolved in DMSO (Macklin cas: 67-68-5) to prepare a 20 mg/mL solution. Then, 75 μL of this solution was added to 150 μL of Solutol (Sigma cas: 70142-34-6), followed by 1.275 mL of 20% Captisol (Selleck cas: 182410-00-0), resulting in a final drug concentration of 1 mg/mL.
Intravenous Injection Drug Preparation: An appropriate amount of the test compound was first weighed and dissolved in DMSO (Macklin cas: 67-68-5) to prepare a 30 mg/mL solution. Then, 15 μL of this solution was added to 150 μL of Solutol (Sigma cas: 70142-34-6), followed by 1.335 mL of 20% Captisol (Selleck cas: 182410-00-0), resulting in a final drug concentration of 0.3 mg/mL.
Procedures: The mice were fasted overnight with free access to water before the experiment. Food was restored two hours after dosing. Blood samples were collected at different time points after intravenous injection or oral gavage of the test compound in mice, and the compound concentration in plasma was measured. Approximately 50 μL of blood was collected from each animal using a capillary sampling tube via the orbital venous plexus, with heparin sodium as an anticoagulant. Blood samples were placed on ice, centrifuged at 3500 r/min for 10 minutes to separate the plasma, and 20 μL of the collected plasma was added to 200 μL of acetonitrile (Merck cas: 75-05-8) containing 200 nM dexamethasone (Selleck cas: 50-02-2) as an internal standard. The mixture was centrifuged at 8000 r/min for 20 minutes. After centrifugation, 150 μL of the supernatant was transferred to a new centrifuge tube, and 150 μL of 0.1% formic acid (Fisher cas: 207868) was added. The mixture was mixed well, and 5 μL of the sample was subjected to quantitative analysis by liquid chromatography-mass spectrometry (Q-TOF LC/MS).
The test compound was serially diluted with DMSO to cover the compound concentrations expected in plasma samples to be tested, with a blank sample (containing only DMSO) included.
2 μL of each diluted sample at various concentrations was added to 18 μL of normal ICR mouse plasma, mixed, and then added to 200 μL of acetonitrile (Merck cas: 75-05-8) containing 200 nM dexamethasone (Selleck cas: 50-02-2) as an internal standard. The mixture was centrifuged for 20 minutes (8000 r/min). 150 μL of the supernatant was transferred to a new centrifuge tube, and 150 μL of 0.1% formic acid (Fisher cas: 207868) was added. The mixture was mixed well, and 5 μL of the sample was subjected to quantitative analysis by liquid chromatography-mass spectrometry (Q-TOF LC/MS).
The final standard curve was plotted using the concentration of the test compound after dilution on the abscissa and the ratio of the signal of the compound to the internal standard (dexamethasone) on the ordinate. The standard curve was generated using linear regression with GraphPad Prism 8 software (R2>0.9900).
Data Analysis: calculation of pharmacokinetic parameters: the concentration of the test compound in plasma at different time points after intravenous injection or oral gavage in ICR mice was determined based on the above standard curve, and pharmacokinetic parameters (T1/2, Cmax, AUC, etc.) were calculated using the Phoenix WinNonlin 8.1 non-compartmental analysis model.
Data set [3] concerns breast cancer BR-05-0044E. It counts as in vivo, mouse. The following applies: for Tumor Growth Inhibition Rate (TGI): 21 days. On the procedure: Test Objective: The in vivo efficacy of the test compound was evaluated in a subcutaneous xenograft tumor model of breast cancer BR-05-0044E in NOD SCID mice.
Experimental Animals: Female NOD SCID mice, 6-8 weeks old, weighing 18-20 grams were provided by Beijing Charles River Laboratory Animal Technology Co., Ltd. The animals were acclimated in the experimental environment for 3-7 days before the experiment. The animals were housed in SPF-grade animal rooms in IVC cages (individually ventilated cages) with 4 mice per cage. All cages, bedding, and drinking water were sterilized before use. Cages, feed, and water were changed twice a week. The housing environment and lighting conditions were as follows: temperature: 20-26° C., humidity: 40-70%, light cycle: 12 hours light, 12 hours dark.
PDX Model Establishment: The human breast cancer BR-05-0044E model was initially derived from clinical samples surgically removed. After tumor tissue was expanded in mice, 20-30 mm^3 BR-05-0044E tumor tissue blocks were subcutaneously implanted into the right flank of each mouse. Tumor growth was monitored, and when the average tumor volume reached approximately 150-200 mm^3, the mice were randomly grouped for administration. Animals were weighed, and tumor volume was measured before administration. Random grouping was based on tumor volume (random block design).
Experimental Groups: The experiment was divided into the following groups: 1. Vehicle control group, 2. Compound 1 0.1 mg/kg, 3. Compound 1 0.3 mg/kg, 4. Compound 1 1.0 mg/kg. All groups were administered orally by gavage once daily. Routine checks included observing tumor growth and the impact of drug treatment on the animals' daily behavior (such as activity, food and water intake, body weight changes (measured twice a week), appearance, or other abnormalities). The animal number of deaths and side effects in each group were recorded.
Experimental Indicators: The experimental indicators were to assess whether tumor growth was inhibited, delayed, or cured. Tumor diameter was measured twice a week with calipers. Tumor volume was calculated using the formula: V=0.5a×b^2, where a and b represent the tumor's length and width, respectively.
The efficacy of the compound on inhibiting tumor was evaluated by tumor volume and tumor growth inhibition rate (TGI). TGI (%) was calculated as follows: TGI (%)={1−(Average Tumor volume at end of administration in treatment group−Average Tumor volume at start of administration in treatment group)/(Average Tumor volume at end of administration in vehicle control group−Average Tumor volume at start of administration in vehicle control group)}×100%.

The target in data set [4] is PARP2 (Homo sapiens (Human), UniProt Q9UGN5). Put plainly: PARP2 trapping assay. It counts as biochemical. The following applies: read-out: Inhibitory Effect on PARP2 Trapping IC50. On the procedure: [table] […] 1. A 4× enzyme reaction mixture, comprising PARP1, PARP2, and GST-Tb antibody, was prepared with the buffer and 4 μL of the enzyme reaction mixture was added to a 384-well plate. 2. A 4×PARP1 and PARP2 probe reaction mixture was prepared with the buffer and 4 μL of the probe reaction mixture was added to the 384-well plate. 3. A series of gradient-diluted compounds were prepared and 4 μL of the diluted compounds were added to the 384-well plate, and incubated at room temperature for 45 minutes. 4. After incubation, 4 μL of 4×NAD reaction mixture was added to the 384-well plate and incubated at room temperature for 10 minutes. 5. After incubation, the plate was read using a plate reader. 6. Data Analysis: The percentage inhibition rate was calculated as follows: Inhibition Rate (%)=(Reading of Compound Group−Reading of Blank Group)/(Reading of Vehicle Control Group−Reading of Blank Group).

Data set [5] deals with UWB1.289 ovarian cancer cells. Put plainly: Cell proliferation assay, UWB1.289. In kind it is cell-based. The following applies: UWB1289, 168 h, read-out: UWB1.289 Cell IC50. On the procedure:
Experimental Materials: MDA-MB-436 or UWB1.289 cell lines were purchased from Cobioer Biosciences Co. Ltd. (Nanjing, China). The STR identification results were a complete match, and mycoplasma testing was negative. MDA-MB-436 cells were cultured in DMEM complete medium containing 10% fetal bovine serum, 1% penicillin-streptomycin, 1% insulin, and 16 μg/mL glutathione; UWB1.289 cells were cultured in RMPI1640 complete medium containing 10% fetal bovine serum and 1% penicillin-streptomycin.
1. MDA-MB-436 or UWB1.289 cells were cultured in the aforementioned medium (culture conditions: 37° C., 5.0% CO2 in air) until they reached the logarithmic growth phase. The cells were then digested with trypsin containing 0.25% EDTA, centrifuged at 1000 rpm, and the supernatant was discarded. Cell culture medium was added, and the cell suspension was adjusted to 2×10^4/mL after counting. 135 μL of the cell suspension per well was taken and cultured in a 96-well cell culture plate for 16 hours (culture conditions: 37° C., 5.0% CO2 in air).
2. The test compounds, stored at a concentration of 10 mM, were diluted 2.5 times with DMSO and then serially diluted in a 1:3 gradient (9 gradients). The gradient-diluted samples were further diluted 40 times with serum-free medium, and 15 μL of each was added to the 96-well cell culture plate. The positive control group received serum-free medium containing the same concentration of DMSO, and the negative control group received medium without cells. The cells were then cultured for an additional 7 days.
3. After the culture period, the cell culture plate was placed at room temperature for 30 minutes. Then, 100 μL of CellCounting-Lite 2.0 reagent (Vazyme, #DD1101) was added to each well, mixed thoroughly, and incubated in the dark at room temperature for 10 minutes. The luminescence signal was read using a Synergy HTX multi-mode reader.
4. Data analysis was performed using GraphPad Prism 8.0 software. The inhibition rate (%) was calculated as 100*(average luminescence signal of the positive control group−luminescence signal of the compound)/(average luminescence signal of the positive control group−average luminescence signal of the negative control group). The IC50 value was obtained by plotting the logarithm of the compound concentration against the percentage inhibition rate.

Read-outs that look alike come from different tables or passages of the source.

Sequence of PARP2 (Q9UGN5 whole entry): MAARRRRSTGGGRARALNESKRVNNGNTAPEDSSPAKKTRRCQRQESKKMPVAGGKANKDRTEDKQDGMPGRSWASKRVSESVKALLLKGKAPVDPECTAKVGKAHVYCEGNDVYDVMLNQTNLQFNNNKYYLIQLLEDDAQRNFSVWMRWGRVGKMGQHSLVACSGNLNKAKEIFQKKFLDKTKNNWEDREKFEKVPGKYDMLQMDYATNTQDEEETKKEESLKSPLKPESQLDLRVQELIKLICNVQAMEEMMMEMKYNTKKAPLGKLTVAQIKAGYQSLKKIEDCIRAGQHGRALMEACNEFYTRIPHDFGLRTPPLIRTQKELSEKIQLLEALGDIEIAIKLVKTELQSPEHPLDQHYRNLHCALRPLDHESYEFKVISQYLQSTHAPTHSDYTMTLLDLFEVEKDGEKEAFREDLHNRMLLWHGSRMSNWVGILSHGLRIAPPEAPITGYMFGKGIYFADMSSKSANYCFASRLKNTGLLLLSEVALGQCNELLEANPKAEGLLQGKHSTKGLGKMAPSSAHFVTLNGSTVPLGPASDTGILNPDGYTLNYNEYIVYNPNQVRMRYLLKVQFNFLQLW

Usually IC50 stands for the concentration that inhibits the measured activity by half. As a reminder, the AUC(0-inf) is total exposure, with the tail of the curve extrapolated. The Cmax is the peak of the concentration-time curve. What is called half-life is how long it takes for the measured level to halve. As to `CNC(=O)c1ccc(N2CCN(Cc3cnc4c(C)c(C(F)(F)F)c(=O)[nH]c4c3)CC2)cn1` [Compound 1, N-methyl-5-(4-((8-methyl-6-oxo-7-(trifluoromethyl)-5,6-dihydro-1,5-naphthyridin-3-yl)methyl)piperazin-1-yl)picolinamide], the half-maximal inhibitory concentration (IC50) was 1.59 nM in data set [1], 164 nM in data set [4] and 0.66 nM in data set [5]. In data set [2], this molecule showed an area under the curve AUC(0-inf) of 972 µg·h/mL. This molecule registered a Cmax in data set [2] of 39600 ng/mL. For the same molecule, the half-life in data set [2] is 1070 min. For the same molecule, the results for the “Tumor Growth Inhibition Rate (TGI)” value in data set [3] (0.1 mg/kg oral once daily), in data set [3] (0.3 mg/kg oral once daily) and in data set [3] (1.0 mg/kg oral once daily) were 105%, 106% and 107%, respectively. In data set [3] (mouse, in vivo), the “Body weight vs vehicle control group” value was “no significant difference”.
